Reference: PubChem BioAssay (NCI)
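These data come from cells grown in 96-well plates and exposed to compound for 48 hours at five concentrations. Abbreviation: GI50, concentration required for 50% inhibition of growth. TGI is the concentration that stops growth completely.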

Key:
Assay in all cases: DTP human tumour cell line panel, 48 h
T-47D breast = system: T-47D breast
A498 renal = system: A498 renal
NCI-H460 lung = system: NCI-H460 lung
PC-3 prostate = system: PC-3 prostate
EKVX NSCLC = system: EKVX NSCLC
NCI-H522 lung = system: NCI-H522 lung
MOLT-4 leukemia = system: MOLT-4 leukemia
HCC-2998 colon = system: HCC-2998 colon
SK-OV-3 ovarian = system: SK-OV-3 ovarian
SNB-19 CNS = system: SNB-19 CNS
OVCAR-8 ovarian = system: OVCAR-8 ovarian
HOP-92 NSCLC = system: HOP-92 NSCLC
SF-295 CNS = system: SF-295 CNS
SW-620 colon = system: SW-620 colon
786-0 renal = system: 786-0 renal
MALME-3M melanoma = system: MALME-3M melanoma
OVCAR-5 ovarian = system: OVCAR-5 ovarian
HOP-62 NSCLC = system: HOP-62 NSCLC
HCT-116 colon = system: HCT-116 colon
SR leukemia = system: SR leukemia
LOX IMVI melanoma = system: LOX IMVI melanoma
HT29 colon = system: HT29 colon
ACHN renal = system: ACHN renal
CCRF-CEM leukemia = system: CCRF-CEM leukemia
MDA-MB-435 = system: MDA-MB-435
SF-268 CNS = system: SF-268 CNS
OVCAR-3 ovarian = system: OVCAR-3 ovarian
OVCAR-4 ovarian = system: OVCAR-4 ovarian
MDA-MB-231 breast = system: MDA-MB-231 breast
CAKI-1 renal = system: CAKI-1 renal
UO-31 renal = system: UO-31 renal
SN12C renal = system: SN12C renal
RPMI-8226 leukemia = system: RPMI-8226 leukemia
NCI-H226 lung = system: NCI-H226 lung
IGROV1 ovarian = system: IGROV1 ovarian
SK-MEL-2 melanoma = system: SK-MEL-2 melanoma
UACC-62 melanoma = system: UACC-62 melanoma
SF-539 CNS = system: SF-539 CNS
TK-10 renal = system: TK-10 renal
U251 CNS = system: U251 CNS
UACC-257 melanoma = system: UACC-257 melanoma
M14 melanoma = system: M14 melanoma
HCT-15 colon = system: HCT-15 colon
NCI-H23 lung = system: NCI-H23 lung
A549 NSCLC = system: A549 NSCLC
SK-MEL-5 melanoma = system: SK-MEL-5 melanoma
SK-MEL-28 melanoma = system: SK-MEL-28 melanoma
COLO 205 colon = system: COLO 205 colon
BT-549 breast = system: BT-549 breast
RXF 393 renal = system: RXF 393 renal
HS 578T breast = system: HS 578T breast
K-562 leukemia = system: K-562 leukemia
KM12 colon = system: KM12 colon
MCF7 breast = system: MCF7 breast
HL-60(TB) leukemia = system: HL-60(TB) leukemia
NCI/ADR-RES ovarian = system: NCI/ADR-RES ovarian
SNB-75 CNS = system: SNB-75 CNS
DU-145 prostate = system: DU-145 prostate

SMILES: Cc1ccc2c(n1)C(=O)C(Cl)=C(Nc1ccc(C#N)cc1)C2=O
- GI50 (T-47D breast): 1.87 µM
- TGI (T-47D breast): 4.79 µM
- GI50 (A498 renal): 16.3 µM
- TGI (A498 renal): > 100 µM
- GI50 (NCI-H460 lung): 30.2 µM
- TGI (NCI-H460 lung): > 100 µM
- GI50 (PC-3 prostate): 10 µM
- TGI (PC-3 prostate): 25.1 µM
- GI50 (EKVX NSCLC): 2.19 µM
- TGI (EKVX NSCLC): 5.59 µM
- GI50 (NCI-H522 lung): 1.75 µM
- TGI (NCI-H522 lung): 3.75 µM
- GI50 (MOLT-4 leukemia): 0.47 µM
- TGI (MOLT-4 leukemia): 2.56 µM
- GI50 (HCC-2998 colon): 3.83 µM
- TGI (HCC-2998 colon): 16.1 µM
- GI50 (SK-OV-3 ovarian): 11.7 µM
- TGI (SK-OV-3 ovarian): 27.7 µM
- GI50 (SNB-19 CNS): 15.7 µM
- TGI (SNB-19 CNS): 39.8 µM
- GI50 (OVCAR-8 ovarian): 10.1 µM
- TGI (OVCAR-8 ovarian): 28.2 µM
- GI50 (HOP-92 NSCLC): 1.71 µM
- TGI (HOP-92 NSCLC): 3.41 µM
- GI50 (SF-295 CNS): 17.6 µM
- TGI (SF-295 CNS): 39.2 µM
- GI50 (SW-620 colon): 1.76 µM
- TGI (SW-620 colon): 3.87 µM
- GI50 (786-0 renal): 1.74 µM
- TGI (786-0 renal): 3.24 µM
- GI50 (MALME-3M melanoma): 1.74 µM
- TGI (MALME-3M melanoma): 3.36 µM
- GI50 (OVCAR-5 ovarian): 17.7 µM
- TGI (OVCAR-5 ovarian): 34.8 µM
- GI50 (HOP-62 NSCLC): 17.9 µM
- TGI (HOP-62 NSCLC): 50.7 µM
- GI50 (HCT-116 colon): 1.83 µM
- TGI (HCT-116 colon): 3.78 µM
- GI50 (SR leukemia): 0.375 µM
- TGI (SR leukemia): 2.25 µM
- GI50 (LOX IMVI melanoma): 1.53 µM
- TGI (LOX IMVI melanoma): 3.46 µM
- GI50 (HT29 colon): 3.06 µM
- TGI (HT29 colon): 10.6 µM
- GI50 (ACHN renal): 1.81 µM
- TGI (ACHN renal): 3.3 µM
- GI50 (CCRF-CEM leukemia): 0.358 µM
- TGI (CCRF-CEM leukemia): 2.2 µM
- GI50 (MDA-MB-435): 6.99 µM
- TGI (MDA-MB-435): 22.7 µM
- GI50 (SF-268 CNS): 8.36 µM
- TGI (SF-268 CNS): 25.6 µM
- GI50 (OVCAR-3 ovarian): 1.84 µM
- TGI (OVCAR-3 ovarian): 3.51 µM
- GI50 (OVCAR-4 ovarian): 1.59 µM
- TGI (OVCAR-4 ovarian): 3.08 µM
- GI50 (MDA-MB-231 breast): 5.59 µM
- TGI (MDA-MB-231 breast): 25.8 µM
- GI50 (CAKI-1 renal): 1.7 µM
- TGI (CAKI-1 renal): 3.31 µM
- GI50 (UO-31 renal): 1.54 µM
- TGI (UO-31 renal): 2.97 µM
- GI50 (SN12C renal): 5.68 µM
- TGI (SN12C renal): 25.4 µM
- GI50 (RPMI-8226 leukemia): 2.19 µM
- TGI (RPMI-8226 leukemia): 5.74 µM
- GI50 (NCI-H226 lung): 4.36 µM
- TGI (NCI-H226 lung): 17.6 µM
- GI50 (IGROV1 ovarian): 10.7 µM
- TGI (IGROV1 ovarian): 24.7 µM
- GI50 (SK-MEL-2 melanoma): 11.6 µM
- TGI (SK-MEL-2 melanoma): 24.6 µM
- GI50 (UACC-62 melanoma): 10.1 µM
- TGI (UACC-62 melanoma): 25.9 µM
- GI50 (SF-539 CNS): 10.2 µM
- TGI (SF-539 CNS): 23 µM
- GI50 (TK-10 renal): 1.83 µM
- TGI (TK-10 renal): 3.27 µM
- GI50 (U251 CNS): 13 µM
- TGI (U251 CNS): 28.7 µM
- GI50 (UACC-257 melanoma): 1.64 µM
- TGI (UACC-257 melanoma): 3.17 µM
- GI50 (M14 melanoma): 6.12 µM
- TGI (M14 melanoma): 21.9 µM
- GI50 (HCT-15 colon): 1.74 µM
- TGI (HCT-15 colon): 3.66 µM
- GI50 (NCI-H23 lung): 1.84 µM
- TGI (NCI-H23 lung): 4.58 µM
- GI50 (A549 NSCLC): 35.6 µM
- TGI (A549 NSCLC): > 100 µM
- GI50 (SK-MEL-5 melanoma): 4.75 µM
- TGI (SK-MEL-5 melanoma): 17.3 µM
- GI50 (SK-MEL-28 melanoma): 2.46 µM
- TGI (SK-MEL-28 melanoma): 5.74 µM
- GI50 (COLO 205 colon): 1.66 µM
- TGI (COLO 205 colon): 3.51 µM
- GI50 (BT-549 breast): 2.8 µM
- TGI (BT-549 breast): 12 µM
- GI50 (RXF 393 renal): 1.45 µM
- TGI (RXF 393 renal): 2.79 µM
- GI50 (HS 578T breast): 14.6 µM
- TGI (HS 578T breast): 56.1 µM
- GI50 (K-562 leukemia): 0.351 µM
- TGI (K-562 leukemia): 1.87 µM
- GI50 (KM12 colon): 19.9 µM
- TGI (KM12 colon): > 100 µM
- GI50 (MCF7 breast): 1.9 µM
- TGI (MCF7 breast): 4.62 µM
- GI50 (HL-60(TB) leukemia): 1.08 µM
- TGI (HL-60(TB) leukemia): 3.05 µM
- GI50 (NCI/ADR-RES ovarian): 3.55 µM
- TGI (NCI/ADR-RES ovarian): 17.7 µM
- GI50 (SNB-75 CNS): 6.8 µM
- TGI (SNB-75 CNS): 34.5 µM
- GI50 (DU-145 prostate): 2.13 µM
- TGI (DU-145 prostate): 4.48 µM
